Experimental data taken from patent publication US20250154590A1, “USE OF SET7/9 FOR DIAGNOSING AND TREATING ENDMT-RELATED DISEASE” (IBMSOL CO., LTD., priority 2021, published 2025).

Experiments:
[1] = tested on: SuHx-induced pulmonary arterial hypertension rats; assay: SuHx-induced pulmonary arterial hypertension animal model; format: in vivo, rat; settings: subcutaneously 10 mg/kg for 3 weeks
Procedure: 8-Week-old male Sprague Dawley rats (specific-pathogen-free grade form SaeronBio, Republic of Korea) were used for the PAH rat model.
Semaxanib (DC Chemicals, SU5416) dissolved in DMSO and then suspended in a buffer (0.5% sodium carboxymethylcellulose, 0.5% sodium chloride, 0.4% Tween-80, and 0.9% benzyl alcohol that were dissolved in deionized water) was injected subcutaneously into the rats at 20 mg/kg. The rats were exposed to 10% 02 hypoxic conditions for 3 weeks. After the rats were restored to normoxic conditions, Cyproheptadine (Cayman) or (R)-PFI-2 (DC Chemicals) was administered. Cyproheptadine was administered intraperitoneally every day at 5 mg/kg for 2 weeks, and (R)-PFI-2 was administered subcutaneously every 2 days at 10 mg/kg for 3 weeks. A right ventricular systolic pressure (RVSP) was measured, and the rats were sacrificed.
Proteins were separated by sodium dodecyl sulfate polyacrylamide gel electrophoresis (SDS-PAGE) and transferred to a polyvinylidene difluoride membrane (Millipore). After blocking the membrane with 3% BSA dissolved in 0.2% PBS with Tween® detergent (PBST), the proteins on the membrane were reacted with the primary antibodies listed in Table 2 overnight. For immunodetection, HRP-conjugated secondary antibodies (1:4,000) were conjugated with the primary antibodies at room temperature for 1 hour (average temperature of 22° C.), and then detected using an enhanced chemiluminescence detection system (Thermo Scientific). In order to separate cytoplasmic and nuclear proteins, EpiQuik Nuclear Extraction Kit (EpiGentek) was used according to the manufacturer's instructions. Protein extracts from animal lung tissue were homogenized in RIPA buffer for 3 minutes at a frequency of 25 Hz.
The harvested animal lung tissue was embedded in paraffin blocks and cut into […] sections. The paraffin sections were deparaffinized using Histoclear for 10 minutes. In order to hydrate the sections, ethanol dissolved in pure water was used according to a concentration gradient (100%, 90%, 70%, 50%, 30%, and 0%). The tissue slides were placed in Borg Decloaker RTU antigen retrieval solution (Biocare Medical) and the sections were heated using a pressure cooker to recover antigens. When the temperature of the recovery solution was lowered, the sections were washed three times with 1×PBS for 5 minutes each, and then blocked with a blocking buffer (1% BSA and 5% goat serum dissolved in 1×PBS) at room temperature for 30 minutes. The sections were reacted with the primary antibodies at 4° C. overnight. Anti-vWF conjugated with FITC (Abcam, ab8822, 1:50), anti-α-SMA conjugated with Cy3 (Sigma Aldrich, C6198, 1:100), anti-SM22a (Abcam, ab14106, 1:130), and anti-SET7/9 (LsBio, C337450, 1:50) were used. For fluorescent staining, the sections were reacted with the secondary antibodies such as donkey anti-goat Alexa Fluor 568 (Invitrogen, 1:150 to 1:400), Goat anti-Rabbit Alexa Fluor 647 (Invitrogen, 1:150), and donkey anti-goat Alexa Fluor 568 (Invitrogen, 1:400) at room temperature for 1 hour. For color staining, after the sections were reacted with the primary antibodies overnight, the sections were reacted with Goat anti-Mouse IgG Secondary Antibody, HRP (Pierce, 1:100) for 1 hour and subjected to a color reaction using DAB staining kit (Vector, SK-4800). Hematoxylin-eosin staining was performed using staining products available from Vector. Image analysis was performed using confocal microscopes equipped with a 40× objective available from Zeiss and Leica. The co-localization effect was verified through Mander's overlap coefficient (MOC). […]
In order to confirm the effect of (R)-PFI-2 in an animal model, (R)-PFI-2 was administered subcutaneously to SuHx-induced pulmonary arterial hypertension rats at a concentration of 10 mg/kg for 3 weeks. […]

PAECs [2] = assay: Dextran permeation assay; format: cell-based, human; settings: TGF-β2, IL-1β and (R)-PFI-2; FIG. 9D
Procedure: PAECs were seeded at 2×10^5 cells per well in a 24-well plate equipped with a cell culture inlet (SPL, 0.4 μm). After a drug treatment, the insert was transferred to a well containing a serum-free medium (SFM), the medium in the insert was replaced with SFM containing FITC-dextran (Sigma Aldrich, FD40S, 1 mg/ml). After 10 minutes and 1 hour, a part of SFM was taken out from the plate well where dextran permeation occurred, and the fluorescence was measured. The fluorescence intensity was measured on a microplate reader (excitation, 485 nm; emission, 530 nm).

[3] = tested on: pulmonary artery endothelial cells; assay: EndMT marker expression (Western blot, qRT-PCR) in pulmonary artery endothelial cells treated with TGF-β2 and IL-1β; format: cell-based, human; settings: PAECs treated simultaneously with TGF-β2, IL-1β and (R)-PFI-2
Procedure: Pulmonary arterial ECs (PAECs) and human umbilical vein ECs (HUVECs) were cultured in EGM-2 (Lonza) to which MycoZap (Lonza) and 1% penicillin-streptomycin (Welgene) were added. Human Microvascular ECs (HMVECs) were cultured in EGM-2-MV (Lonza), and Lenti-λ-293T and MCF7 cells were cultured in Dulbecco's modified Eagle medium (DMEM) (HyClone) containing 10% fetal bovine serum (FBS, HyClone), 1% penicillin-streptomycin (Welgene), and MycoZap (Lonza). All cell lines were cultured at 37° C. in a 5% CO2 incubator and cultured at 90% density.
TGF-β2 was purchased from Peprotech and dissolved in pure water containing 0.1% bovine serum albumin (BSA). IL-1β was purchased from R&D System and dissolved in 1×PBS containing 0.1% BSA. […]
In order to isolate the total RNA, miRNeasy RNA isolation kit (QIAGEN) was used. The purified RNA was reverse transcribed using qPCRBIO cDNA Synthesis Kit (PCR-BIOSYSTEMS), and real-time quantitative PCR (qRT-PCR) was performed using qPCRBIO SyGreen Mix Hi-ROX (PCR-BIOSYSTEMS) according to the manufacturer's instructions. […]
All cells were lysed in radioimmunoprecipitation assay (RIPA) buffer (Biosesang) containing protease (GenDepot) and phosphatase (Sigma Aldrich) inhibitors for 20 minutes. […] A protein concentration was measured using Pierce BCA Protein Assay Kit (Thermo Scientific), and Laemmli SDS Sample Buffer was added to an equal amount of protein and boiled. […]

PAECs [4] = assay: Dil-Ac-LDL uptake assay; format: cell-based, human; settings: TGF-β2, IL-1β and (R)-PFI-2; FIG. 9E
Procedure: PAECs were seeded at 2×10^5 cells per well in a 12-well plate. After a drug treatment, the cells were reacted with Dil-Ac-LDL (Invitrogen, 10 μg/ml) at 37° C. for 3 hours. After the reaction, the cells were washed four times with 1×PBS and then subjected to image analysis with a fluorescence microscope.

[5] = tested on: pulmonary artery endothelial cells; assay: Phalloidin staining of cytoskeleton change in EndMT-induced pulmonary artery endothelial cells; format: cell-based, human; settings: TGF-β2, IL-1β and (R)-PFI-2; FIG. 9C
Procedure: PAECs and Lenti-X-293T were immobilized with 4% formaldehyde and washed with 1×PBS. Thereafter, the cells were permeabilized with 0.2% Triton X-100 and blocked with 1% BSA dissolved in 1×PBS for 1 hour at room temperature. The cells were reacted with the following primary antibodies at 4° C. overnight: anti-VE-cadherin (Cell Signaling, 2500S, 1:100), anti-Fibronectin (BD Pharmigen, 61007, 1:100), anti-TAGLN (Abcam, ab14106, 1:200), anti-α-SMA conjugated with Cy3 (Sigma Aldrich, C6198, 1:200), anti-NF-κB p65 (Cell signaling, 8242S, 1:400), anti-SET7/9 (LsBio, C337450, 1:100), and rhodamine phalloidin (Sigma Aldrich, 1:1,000). Secondary antibodies of donkey anti-goat Alexa Fluor 488 and donkey anti-goat Alexa Fluor 568 (Invitrogen, 1:400) were reacted at room temperature for 1 hour. In order to obtain immunostaining images, a confocal microscope equipped with a 60× objective lens (Zeiss LSM-700) was used.
In order to confirm the inhibitory effect of the drug on endothelial-mesenchymal transition, a model in which pulmonary artery endothelial cells were simultaneously treated with cyproheptadine along with TGF-β2 and IL-1β for 5 to 7 days was used. […]

SET7/9 = molecular target: T1, SET7/9 (Homo sapiens, UniProt Q8WTS6); settings: acts by attaching to the substrate peptide binding groove of SET7/9; cited from earlier work
T1 sequence (Q8WTS6 1-366): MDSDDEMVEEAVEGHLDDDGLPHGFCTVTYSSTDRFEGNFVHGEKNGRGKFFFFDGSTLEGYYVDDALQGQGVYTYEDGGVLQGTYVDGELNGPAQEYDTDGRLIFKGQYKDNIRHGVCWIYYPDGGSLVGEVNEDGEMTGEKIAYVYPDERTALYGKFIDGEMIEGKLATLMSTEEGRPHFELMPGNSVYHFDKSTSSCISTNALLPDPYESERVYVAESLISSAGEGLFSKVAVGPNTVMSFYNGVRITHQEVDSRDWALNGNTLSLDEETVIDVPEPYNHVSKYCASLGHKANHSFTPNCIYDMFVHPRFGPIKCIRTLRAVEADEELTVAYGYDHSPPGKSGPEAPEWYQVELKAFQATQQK

O=C([C@@H](Cc1cccc(C(F)(F)F)c1)NS(=O)(=O)c1cc(F)c2c(c1)CCNC2)N1CCCC1 [(R)-PFI-2]
SET7/9 expression in blood vessels ([1]; SuHx rat lung tissue, FIG. 10D): decrease | area where endothelial and mesenchymal cell markers were simultaneously stained (EndMT) ([1]; SuHx rat lung tissue, FIG. 10D): decrease | right ventricular systolic pressure (RVSP mmHg) ([1]; SuHx rats, FIG. 10A): decreased | right ventricle/left ventricle+septum ratio (RV/LV+S %) ([1]; SuHx rats, FIG. 10B): decreased | right ventricle weight (RV mg) ([1]; SuHx rats, FIG. 10C): decreased | muscularization of lung tissue blood vessels (immunohistochemical staining) ([1]; SuHx rats, FIG. 10D): significantly reduced | expression of TGFβR1 in lung tissue ([1]; SuHx rats, FIG. 10F): decreased | expression of mesenchymal cell markers such as Twist and pVIM in lung tissue ([1]; SuHx rats, FIG. 10F): decreased | expression of phosphorylated SMAD2 protein in lung tissue ([1]; SuHx rats, FIG. 10F): significantly decreased | number of blocked or enlarged blood vessels in lung tissue (H&E staining) ([1]; compared to SuHx group, FIG. 10E): reduced | permeability (PAECs [2]): restored | expression of endothelial cell marker CD31 and mesenchymal cell markers TNC, FN, Calponin, SM22α (Western blot) ([3]; FIG. 9A): restoration | expression of PECAM1 and FN, CDH2, COL3A1 (qRT-PCR) ([3]; FIG. 9B): restoration | Dil-Ac-LDL uptake ability (PAECs [4]): restored | change in cytoskeleton (phalloidin staining) [5]: reduced | mode of inhibition of SET7/9 (SET7/9): substrate competitive inhibitor
